A word on the IC50: it is the point on the concentration scale where inhibition reaches its midpoint.

From PMC11947183 (Communications Biology, 2025) come the findings set out here.

One assay deals with MjavOBP1. It counts as binding, Manis javanica. The note with it: for Kd: read-out: K d (competitive binding), pH 7.4.
In another assay the target is MjavOBP2. Set-up: species or system Manis javanica. Conditions: read-out: K d (competitive binding); pH 7.4.
The subject of another assay is MjavOBP3. On the set-up: species or system Manis javanica. The note with it: read-out: IC50 (competitive binding); pH 7.4.

SMILES strings stand for the structures.

With `CC(C)=CCCC(C)=CC=O` (mixture of isomers) [citral, Citral], the “binding to MjavOBP1 (in words)” value with MjavOBP1 is on record as “bound weakly”.
Regarding `CCCCCCCCCC(C)=O` [2-undecanone, 2-Undecanone], the Kd came to 56.6 ± 4.2 µM on MjavOBP1 and 54.5 ± 10.8 µM on MjavOBP2.
`O=C(O)CCc1ccccc1` [3-phenylpropionic acid, 3-Phenylpropionic acid]: the “binding to MjavOBP1 (in words)” value in the assay with MjavOBP1 is recorded as “bound weakly”.
`CCCCCCCCC(=O)CC` [3-undecanone, 3-Undecanone]: the IC50 in the assay with MjavOBP3 was above 2.23 µM.
`CCCCCC=O` [hexanal, Hexanal]: the half-inhibitory concentration (IC50) in the assay with MjavOBP3 was above 2.23 µM.
Turning to `Cc1c[nH]c2ccccc12` [skatole, 3-methylindole], on MjavOBP2, the Kd was determined as 40.8 ± 8.93 µM.
In the case of `C=CC(=C)CC/C=C(\C)CCC=C(C)C` [β-farnesene], the concentration for half-maximal inhibition (IC50) with MjavOBP3 was above 2.23 µM.
With `CCCCCCCC1CCCC(=O)O1` (stereo not drawn) [δ-dodecalactone, δ-Dodecalactone], at MjavOBP1, the Kd is 38.7 ± 2.04 µM.
